Holding throughout (assay): growth of human tumour cells (NCI), 48 h
For assay [1], the system named is HCC-2998 colon.
The subject of assay [2] is HCT-116 colon.
Assay [3] has as its system HS 578T breast.
The subject of assay [4] is LOX IMVI melanoma.
Assay [5] relates to MCF7 breast.
The test system of assay [6] is MDA-MB-231 breast.
Assay [7] relates to NCI-H23 lung.
Assay [8] relates to RPMI-8226 leukemia.
In assay [9] the test system is UACC-257 melanoma.
In assay [10] the test system is SNB-75 CNS.

The results in this text go back to PubChem BioAssay (NCI).

The structures appear in SMILES notation. Values joined by “and” are separate entries in the source; they are usually repeats but may differ in a detail not shown here. Identical values can stand only once.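 These data come from cells grown in 96-well plates and exposed to compound for 48 hours at five concentrations. The concentration for 50% growth inhibition is given as GI50. Definition used: TGI = concentration required for complete inhibition of growth.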

Turning to `COc1cc(C#CC(=O)OC/C=C/c2ccc3c(c2)OCO3)cc(OC)c1OC`, the TGI in assay [1] was 49.2 µM; in [2], greater than 100 µM; in [3], 51 µM; in assay [4] it was 47.3 µM; in assay [5] it was 64.8 µM; in assay [6], 79.4 µM. In addition, the TGI in assay [7] is 58.5 µM; in assay [8] it was 51.8 µM; in assay [9], 70.9 µM.

In the case of `CCC(C)n1ncn(-c2ccc(N3CCN(c4ccc(OCC5COC(Cn6cncn6)(c6ccc(Cl)cc6Cl)O5)cc4)CC3)cc2)c1=O` (centres undefined), the GI50 in [1] was 84.1 µM; in [2], 21.6 µM; in assay [3], 7.42 µM; in assay [4], 9.41 µM; in [5] it was 22.2 µM; in assay [6] it was 7.11 µM. The GI50 was 27.8 µM in assay [7], 0.973 µM in assay [8], 11.4 µM in assay [10] and 57.7 µM in assay [9]. In addition, the TGI in assay [1], in assay [2], in assay [3], in assay [4], in assay [5] and in assay [6] was greater than 100 µM throughout. Also, the TGI in assay [7] is greater than 100 µM; in [8] it was greater than 100 µM; in assay [10], 71.2 µM; in [9], greater than 100 µM.

Regarding `CNC(=O)N(C)N=NCCCl`, the TGI in assay [1], in [2], in assay [3], in assay [4], in assay [5] and in assay [6] was greater than 100 µM throughout. Also, the TGI in [7], in assay [8], in [10] and in assay [9] was greater than 100 µM each time.

`O/N=C/C1C(OCc2ccccc2)C(OCc2ccccc2)C(OCc2ccccc2)CN1Cc1ccccc1` (centres undefined): the TGI in [1] is greater than 100 µM; in assay [2] it was 22.6 µM and > 100 µM; in [3], 96.6 µM and 88.5 µM; in assay [4], 29.4 µM and > 100 µM; in [5] it was 40.8 µM and 15.7 µM; in [6] it was 93.7 µM. The TGI in assay [7] was 41.7 µM and 26.6 µM; in assay [8], greater than 100 µM; in [10] it was 33.1 µM and > 100 µM; in assay [9], 72.5 µM and 15.7 µM. For the same compound, the GI50 in assay [3] is 21.5 µM and 3.75 µM; in assay [5], 9.88 µM and 2.9 µM; in [7], 14.1 µM and 2.78 µM; in assay [10], 11.5 µM and > 100 µM; in assay [9], 23.3 µM and 2.45 µM.

Regarding `Cc1ccc(C)c(C2=C(c3cn(C)c4ccccc34)C(=O)NC2=O)c1`, the GI50 was greater than 25 µM in [1]; 7.58 µM in assay [2]; greater than 25 µM in [3]; greater than 19.5 µM in assay [4]; 6.81 µM in assay [5]; greater than 25 µM in assay [6]. Further, the GI50 in [7] was greater than 25 µM; in [8], greater than 22 µM; in assay [10] it was 1.15 µM; in assay [9] it was greater than 25 µM. The TGI in [1], in assay [2], in assay [3], in assay [4], in assay [5] and in assay [6] was greater than 25 µM throughout. For the same compound, the TGI in [7], in assay [8], in assay [10] and in assay [9] was greater than 25 µM each time.

With `N#Cc1c(NN)n(C2OC(CO)C(O)C2O)c2ncnc(N)c12` (centres undefined), the GI50 in [1] was 0.292 µM; in assay [3], 0.0382 µM; in assay [4], 0.0513 µM; in [5] it was 0.0315 µM; in [6] it was 0.284 µM; in [7], 0.218 µM. The figures for the GI50 in [8], in assay [10] and in [9] were 0.105 µM, 0.388 µM and 0.267 µM, respectively. The TGI is 2.41 µM in assay [1]; 0.429 µM in [3]; 0.328 µM in [4]; 2.87 µM in [5]; greater than 24.1 µM in [6]; 2.47 µM in [7]. Moreover, the TGI is 0.614 µM in [8], 9.56 µM in assay [10] and 1.66 µM in [9].

In the case of `O=C(O)CCC(=O)c1ccc[nH]1`, the TGI in assay [2], in assay [3], in assay [4], in [5], in assay [6] and in [7] was greater than 100 µM throughout. Besides, the TGI in assay [8], in [10] and in [9] was greater than 100 µM throughout.

Take `COc1ccc2c(c1)CCCC(Br)C2=O` (centres undefined): the TGI in [1] is greater than 100 µM; in assay [3] it was greater than 94.3 µM; in assay [4], 3.04 µM; in assay [5], 15.1 µM; in [6] it was 10.9 µM; in [7], 26.3 µM. For the same compound, the figures for the TGI in assay [8], in assay [10] and in [9] were 5.5 µM, 27.9 µM and 32.1 µM, respectively.

As for `S=C1NC2(CCCCCC2)NN1c1ccccc1`, the TGI in [3], in assay [4], in assay [5], in [6], in [7] and in assay [8] was greater than 100 µM each time. Besides, the TGI in assay [10] and in [9] was greater than 100 µM each time.

Regarding `Cc1nc2c(-c3cnc(N)nc3)nc(N3CCOCC3)nc2n1C(C)C`, the TGI in [1] is 4.27 µM and 24.8 µM; in assay [2], greater than 100 µM; in assay [3] it was 0.578 µM and 0.199 µM; in assay [4], 1.56 µM and 6.03 µM; in assay [5], greater than 100 µM; in [6], > 4.14 µM and 27.1 µM. The TGI is > 3 µM and 10.9 µM in assay [8]; 0.334 µM and 0.272 µM in assay [10]. Moreover, the GI50 in assay [2] was 0.254 µM and 0.289 µM; in assay [5] it was 0.0876 µM and 0.0298 µM; in assay [8], 0.179 µM and 0.123 µM.
